Tested on: leukemia SR cells
Experiment: Cell cycle analysis, PI flow cytometry
Format: cell-based, human
Design: increase of cells at pre-G1 phase vs control: concentration or dose not given beside the values
Procedure: The cells were washed twice using Ice-cold phosphate buffer saline (PBS). • Centrifugation was used to collect the cells, then the cells were fixed in 70% (v/v) ethanol, washed with PBS and re-suspended with 0.10 mg/mL RNase. • After that, cells were stained with […] propidium iodide (PI) and evaluated by flow cytometry using FACSCalibur (Becton Dickinson).

## CCn1cc(C(=O)NN=Cc2cccs2)c(=O)c2cc(F)c(N3CCNC(C)C3)c(F)c21 (centres unmarked) [Compound 3e, 1-Ethyl-6,8-difluoro-7-(3-methylpiperazin-1-yl)-4-oxo-N'-(thiophen-2-ylmethylene)-1,4-dihydroquinoline-3-carbohydrazide]
  increase of cells at pre-G1 phase vs control: 10.19 folds
3e at 1.90 µM, 24 h
  %G0-G1: 24.66%
  %G2-M: 49.26%
  %Pre-G1: 26.19%
  %S: 26.08%

Reference: article PMC10940605, “Design, synthesis and in vitro anticancer activity of some new lomefloxacin derivatives” (Scientific Reports, 2024)
